Laboratory results taken from the NIST ThermoML archive (doi:10.1021/je101361u).
Numbers after ± are expanded uncertainties.

Test: xn = mol fraction of the nth substance listed
Conditions: 101.3 kPa, Liquid

COCCOC [1,2-dimethoxyethane] + ClCCCl
mass density [kg/m3]
Conditions | 283.15 K | 288.15 K | 293.15 K | 298.15 K | 303.15 K | 308.15 K
x2 = 0.0251 | 885.37 ± 0.49 | 879.96 ± 0.49 | 874.49 ± 0.5 | 868.99 ± 0.51 | 863.45 ± 0.51 | 857.87 ± 0.52
x2 = 0.05 | 893.06 ± 0.48 | 887.61 ± 0.48 | 882.11 ± 0.49 | 876.59 ± 0.49 | 871.02 ± 0.5 | 865.42 ± 0.51
x2 = 0.0501 | 893.14 ± 0.48 | 887.69 ± 0.48 | 882.19 ± 0.49 | 876.66 ± 0.49 | 871.08 ± 0.5 | 865.47 ± 0.51
x2 = 0.075 | 900.9 ± 0.46 | 895.43 ± 0.47 | 889.9 ± 0.47 | 884.34 ± 0.48 | 878.74 ± 0.49 | 873.1 ± 0.49
x2 = 0.1 | 908.78 ± 0.45 | 903.28 ± 0.45 | 897.71 ± 0.46 | 892.12 ± 0.47 | 886.49 ± 0.47 | 880.82 ± 0.48
x2 = 0.1552 | 926.63 ± 0.42 | 921.05 ± 0.42 | 915.42 ± 0.43 | 909.76 ± 0.44 | 904.05 ± 0.44 | 898.32 ± 0.45
x2 = 0.2001 | 941.4 ± 0.39 | 935.76 ± 0.4 | 930.07 ± 0.41 | 924.35 ± 0.41 | 918.59 ± 0.42 | 912.79 ± 0.42
x2 = 0.2501 | 958.23 ± 0.37 | 952.53 ± 0.37 | 946.77 ± 0.38 | 940.98 ± 0.39 | 935.15 ± 0.39 | 929.28 ± 0.4
x2 = 0.3002 | 975.46 ± 0.34 | 969.68 ± 0.35 | 963.86 ± 0.35 | 957.99 ± 0.36 | 952.09 ± 0.37 | 946.16 ± 0.37
x2 = 0.35 | 992.96 ± 0.32 | 987.11 ± 0.32 | 981.21 ± 0.33 | 975.28 ± 0.34 | 969.3 ± 0.34 | 963.29 ± 0.35
x2 = 0.4001 | 1010.98 ± 0.32 | 1005.05 ± 0.31 | 999.08 ± 0.31 | 993.07 ± 0.31 | 987.02 ± 0.32 | 980.93 ± 0.32
x2 = 0.45 | 1029.37 ± 0.34 | 1023.36 ± 0.33 | 1017.3 ± 0.32 | 1011.21 ± 0.32 | 1005.09 ± 0.31 | 998.92 ± 0.3
x2 = 0.5 | 1048.22 ± 0.36 | 1042.13 ± 0.35 | 1035.99 ± 0.34 | 1029.82 ± 0.33 | 1023.61 ± 0.33 | –
x2 = 0.5001 | 1048.32 ± 0.36 | 1042.23 ± 0.35 | 1036.09 ± 0.34 | 1029.91 ± 0.33 | 1023.7 ± 0.33 | –
x2 = 0.55 | 1067.59 ± 0.38 | 1061.41 ± 0.37 | 1055.19 ± 0.36 | 1048.93 ± 0.36 | 1042.63 ± 0.35 | –
x2 = 0.6001 | 1087.41 ± 0.4 | 1081.15 ± 0.39 | 1074.83 ± 0.39 | 1068.48 ± 0.38 | 1062.09 ± 0.37 | –
x2 = 0.65 | 1107.73 ± 0.43 | 1101.37 ± 0.42 | 1094.96 ± 0.41 | 1088.51 ± 0.4 | 1082.03 ± 0.39 | –
x2 = 0.7 | 1128.6 ± 0.45 | 1122.14 ± 0.44 | 1115.63 ± 0.43 | 1109.08 ± 0.42 | 1102.5 ± 0.41 | –
x2 = 0.75 | 1150.14 ± 0.48 | 1143.57 ± 0.47 | 1136.95 ± 0.46 | 1130.3 ± 0.45 | 1123.6 ± 0.44 | –
x2 = 0.8 | 1172.13 ± 0.51 | 1165.45 ± 0.5 | 1158.71 ± 0.49 | 1151.94 ± 0.48 | 1145.15 ± 0.47 | –
x2 = 0.85 | 1195.03 ± 0.54 | 1188.23 ± 0.53 | 1181.37 ± 0.52 | 1174.49 ± 0.51 | 1167.57 ± 0.5 | –
x2 = 0.9 | 1218.48 ± 0.57 | 1211.55 ± 0.55 | 1204.56 ± 0.54 | 1197.56 ± 0.53 | 1190.51 ± 0.52 | –
x2 = 0.925 | 1230.36 ± 0.58 | 1223.37 ± 0.57 | 1216.32 ± 0.56 | 1209.25 ± 0.55 | 1202.14 ± 0.54 | –
x2 = 0.975 | 1254.94 ± 0.61 | 1247.8 ± 0.6 | 1240.62 ± 0.59 | 1233.42 ± 0.58 | 1226.18 ± 0.57 | –
